Measured values as given in publication PMC10380841, “Synthesis, Characterization and Cytotoxic Evaluation of New Pyrrolo[1,2-b]pyridazines Obtained via Mesoionic Oxazolo-Pyridazinones” (International Journal of Molecular Sciences, 2023).
Read-outs that look alike come from different tables or passages of the source.

What was measured:
[1] = tested on: Triticum aestivum L.; assay: Triticum test, phytotoxicity (main root length); format: in vivo; conditions: 10–1000 µM
Experimental: Phytobiological testing (Triticum test) was performed by the Constantinescu method which consists in determining the maximum active dilution of a compound. Depending on the duration of action, it can influence root elongation and the […] film. […] Embryonic wheat roots were obtained by germinating homogeneous wheat caryopses in Linhart pots. Then the caryopses with a main root length of 1 cm were placed in the test solutions. For the determination of the action of each compound, five dilutions in the concentration range of 10–1000 µM were obtained and 11 caryopses were placed in them. Petri dishes containing 15 mL of diluted solution were kept under constant conditions of temperature (25 °C), and humidity (60%), in the absence of light. […] The results were expressed in comparison with a 1% DMSO control.
Statistical analyses were performed using the computing and programming environment R, R, v. 4.2.1 [68], under Rstudio, v. 2022.07.2+576 “Spotted Wakerobin” for Windows (RStudio, PBC, Boston, 2022), both for the Triticum and Artemia tests. It used a parametric mixed-effects model (R package “lme4”) and a robust mixed-effects model (R package “robustlmm”), in which root length measurements (Triticum) from all three days were used as the dependent variable, whereas compound, concentration and time were treated as fixed effects, with time (day of measurement) also treated as a random effect. Assessing statistical significance for mixed-effects statistical models is controversial and complex, but as a pragmatic way of working, we have estimated p-values using the Kenward–Rogers approximation (R package “sjPlot”). A variety of R base functions and R packages were used to diagnose the regression models (“car” [72], “MASS” [73], and “gvlma” [74]). Mixed boxplot–dotplot plots were generated using the “ggplot2” package.
The “drc” R package was used to estimate IC50 values for the Triticum bioassay by nonlinear modeling. For Triticum, the relationship between root length and concentration was modeled using Weibull functions with 2, 3, or 4 parameters, depending on the data distribution, the models being selected from a range of several models with different functions and parameters, based on the Akaike’s information criterion (AIC).

[2] = tested on: MCF-7 breast adenocarcinoma cells; assay: MTS cytotoxicity assay, MCF-7; format: cell-based, human
Experimental: Therefore, the precursor acids 2a–c and corresponding pyrrolo[1,2-b]pyridazines 5a–c,f were tested for their potential cytotoxic activity. During the assays, increasing concentrations of the compounds, ranging from […], were added for 24 h or 48 h to cancer LoVo, SK-OV-3, MCF-7, and the reference HUVEC cells, previously cultured for 24 h in 96-well flat bottom plates. […] Then, MTS reagent was added, and cells were incubated for 4 h at 37 °C in a 5% CO2 humidified atmosphere. The absorbance values were spectrophotometrically read to a Dynex ELISA reader at λ = […].
For the evaluation of the in vitro potential anti-proliferative effects of treatments with the new compounds under study against solid tumor-derived cells, several compound-mediated cytotoxicity assays were performed on three adherent tumor standardized cell lines, and normal human endothelial cells, used as control: the MCF-7 human breast adenocarcinoma and SK-OV-3 human ovary adenocarcinoma cell lines were provided from European Collection of Authenticated Cell Cultures (ECACC), while LoVo, human colorectal adenocarcinoma cell line, and HUVEC human umbilical vein endothelial cells were purchased from American Type Culture Collection (ATCC).
Adherent cells were cultivated in DMEM/F12 medium added with 2 mM L-glutamine and 10% fetal bovine serum, 100 units/mL penicillin, 100 µg/mL streptomycin (Sigma Aldrich, St. Louis, MO, USA) and incubated at 37 °C in 5% CO2 humidified atmosphere. The stock solutions for cell treatments were prepared by dissolving the synthesized compounds in a minimum amount of DMSO. Working dilutions were prepared from the stock solutions in culture medium before each treatment assay. After 24 h, when cell cultures achieved around 70% confluence, treatments were applied for various periods of time with different concentrations of synthesized compounds or oncolytic drugs, used as positive controls.
Therefore, cell cultures treated with the new compounds or oncolytic drugs for 24 h or 48 h were further subjected to a colorimetric cell viability method, the MTS assay. The absorbance of probes was read, data were calculated, and percentages of cell viability were assessed.
The evaluation of the compound-induced cytotoxicity was made using the CellTiter 96 Aqueous One Solution Cell Proliferation Assay (Promega, Madison, WI, USA), a reagent that contains both MTS (3-(4,5-dimethylthiazol-2-yl)-5-(3-carboxymethoxyphenyl)-2-(4-sulfophenyl)-2H-tetrazolium, inner salt) and PES ([…], a cationic dye with high chemical stability that binds to MTS and forms a stable solution). The assay is based on the ability of the metabolically active cells to reduce the yellow tetrazolium salt MTS to a compound that is soluble in culture medium, the colored formazan, followed by the spectrophotometric evaluation of its concentration.
Briefly, 1.5 × 10^4 cancer or normal cells were cultured in 100 µL/well for 24 h. After the culture supernatants were discarded, cells were treated for additional 24 h or 48 h with increasing concentrations of new compounds or oncolytic drugs. Following the specific treatments, in each well a volume of 20 µL of coloring mixture reagent of MTS and PES was added, and then the plates were incubated with mild agitation every 20 min for 4 h at 37 °C. The color developed during incubation was spectrophotometrically quantified at λ = 492 nm using a Dynex ELISA reader (DYNEX Technologies—MRS, Chantilly, VA, USA).
Data were expressed as percentages of cell viability of the treated cells, and were calculated and compared to the untreated cells (considered 100% viable), using the formula:Cell viability (%) = (T − B)/(U − B) × 100 where T = absorbance of treated cells, U = absorbance of untreated cells, and B = absorbance of culture medium (blank), for λ = 492 nm.
The cell viability data were expressed as the mean values ± standard deviations (SD) of three different experiments (n = 3). […]

CCOC(=O)c1cc(CC)n2nc(-c3ccc(F)cc3)ccc12 [Compound 5e, Ethyl 7-ethyl-2-(4-fluorophenyl)pyrrolo[1,2-b]pyridazine-5-carboxylate]
effect on root length ([1]; vs 1% DMSO control): concentration-dependent inhibitory effect | IC50 ([1]; Triticum aestivum, 72 h, Triticum root length, measured over three days): 607 µM | viability at 400 µM ([2]; Homo sapiens, MCF7, MCF-7, 400 μM, 48 h, read-out: cell viability): 73.1% | IC50 ([2]; Homo sapiens, MCF7, MCF-7, 24 h, read-out: IC50 MCF-7 24 h): ≥ 400 µM | IC50 ([2]; Homo sapiens, MCF7, MCF-7, 48 h, read-out: IC50 MCF-7 48 h): ≥ 400 µM | cell viability ([2]; MCF-7, 100–400 μM, 48 h): less than 90%
